Experiment: Displacement of [125I]Bolton-Hunter-CCK-8 from guinea pig cortex Cholecystokinin type B receptor

SMILES | IC50 [µM]
CN(C(=O)[C@H](CC(=O)O)NNC[C@H](CCCCNC(=O)C=Cc1ccc(O)cc1)NC(=O)[C@H](Cc1c[nH]c2ccccc12)NC(=O)OC(C)(C)C)[C@@H](Cc1ccccc1)C(N)=O [3-(N'-{(S)-2-[(S)-2-tert-Butoxycarbonylamino-3-(1H-indol-3-yl)-propionylamino]-6-[(Z)-3-(4-hydroxy-phenyl)-acryloylamino]-hexyl}-hydrazino)-N-((S)-1-carbamoyl-2-phenyl-ethyl)-N-methyl-succinamic acid] | 5
CC(C)(C)OC(=O)N[C@@H](Cc1c[nH]c2ccccc12)C(=O)N[C@@H](CCCCNC(=O)C=Cc1ccc(O)cc1)CNN[C@@H](CC(=O)O)C(=O)N[C@@H](Cc1ccccc1)C(N)=O [3-(N'-{(S)-2-[(S)-2-tert-Butoxycarbonylamino-3-(1H-indol-3-yl)-propionylamino]-6-[(Z)-3-(4-hydroxy-phenyl)-acryloylamino]-hexyl}-hydrazino)-N-((S)-1-carbamoyl-2-phenyl-ethyl)-succinamic acid] | 3.8
Cc1ccccc1NC(=O)NCCCC[C@H](NC(=O)[C@H](Cc1c[nH]c2ccccc12)NC(=O)OC(C)(C)C)C(=O)N[C@H](CNN[C@@H](Cc1ccccc1)C(N)=O)CC(=O)O [3-{2-[2-tert-Butoxycarbonylamino-3-(1H-indol-3-yl)-propionylamino]-6-[(S)-3-((1S,2S)-o-tolyl)-ureido]-hexanoylamino}-4-[N'-((S)-1-carbamoyl-2-phenyl-ethyl)-hydrazino]-butyric acid] | > 10
Cc1ccccc1NC(=O)NCCCC[C@H](NNC[C@H](Cc1c[nH]c2ccccc12)NC(=O)OC(C)(C)C)C(=O)N[C@@H](CC(=O)O)C(=O)N[C@@H](Cc1ccccc1)C(N)=O [(S)-3-[(S)-2-[N'-((S)-2-tert-Butoxycarbonylamino-3-1H-indol-3-yl-propyl)-hydrazino]-6-(3-o-tolyl-ureido)-hexanoylamino]-N-((S)-1-carbamoyl-2-phenyl-ethyl)-succinamic acid] | 2.5
CC(C)(C)OC(=O)N[C@@H](Cc1c[nH]c2ccccc12)C(=O)N[C@@H](CCCCNC(=O)C=Cc1ccc(O)cc1)C(=O)N[C@H](CNN[C@@H](Cc1ccccc1)C(N)=O)CC(=O)O [(S)-3-{2-[2-tert-Butoxycarbonylamino-3-(1H-indol-3-yl)-propionylamino]-6-[(S)-3-((S)-4-hydroxy-phenyl)-acryloylamino]-hexanoylamino}-4-[N'-((S)-1-carbamoyl-2-phenyl-ethyl)-hydrazino]-butyric acid] | 7
Cc1ccccc1NC(=O)NCCCC[C@@H](CNN[C@@H](CC(=O)O)C(=O)N(C)[C@@H](Cc1ccccc1)C(N)=O)NC(=O)[C@H](Cc1c[nH]c2ccccc12)NC(=O)OC(C)(C)C [(S)-3-{N'-[2-((3aS,7S)-2-tert-Butoxycarbonylamino-3-1H-indol-3-yl-propionylamino)-6-(3-o-tolyl-ureido)-hexyl]-hydrazino}-N-((S)-1-carbamoyl-2-phenyl-ethyl)-N-methyl-succinamic acid] | > 10

Reference: BindingDB's records for doi:10.1016/S0960-894X(00)80680-0 (1993)
